Where two headings read alike, the source gives them in different places.
Tests used:
Type in all cases: cell-based
E. coli WP2 uvrA pKM101 = conditions: without metabolic activation
Protocol: A series of dose range finding assays were performed with five bacterial strains, S. typhimurium TA97a, TA98, TA100, TA1535, and E. coli WP2 uvrA pKM101, with and without metabolic activation at three plates per dose. The following doses, along with positive and negative controls, were tested: 5000, 2500, 1250, 500, 250, 125, 50, 20, 10, 5, 2, 1, and 0.2 μg/plate. The plates were evaluated for toxicity (a decrease in plate counts with increasing dose and/or a visible thinning of the background lawn) and for precipitation of the test article. Metabolic activation was included in some samples by adding phenobarbital/benzoflavone-induced rat liver S9 fractions with cofactors (S9 mix). Prior to use, freshly thawed aliquots of rat liver S9 were mixed with a sterile cofactor mix. The S9 mix contains a 10% liver S9 concentration and was refrigerated or stored on ice until used. When testing with metabolic activation, the S9 mix was used in the assay tube in place of phosphate buffer.
Dosing formulations were prepared to deliver all doses in a constant volume of 0.1 mL. The highest dose was prepared from test article weighed to the nearest 0.1 mg and the remaining formulations were prepared as serial dilutions from the high dose stock formulation. Using a permanent marking pen or computer printed labels, assay plates were labeled with the project and study numbers and the date. Assay plates and tubes were labeled with a unique identifier, which was used to match the assay tubes with the properly identified minimal glucose agar plate.
The pre-incubation method was used to perform the assay. The assay mix consisted of 0.1 mL of the test article formulation or control article, 0.5 mL S9 mix or phosphate buffer, and 0.1 mL of bacterial culture. Assay tubes were incubated at 37±1° C. with gentle agitation for 20±1 minutes, then 2.0-2.5 mL top agar was added to the assay mix and the top agar/assay mix poured onto appropriately labeled minimal glucose agar plates. Once the top agar hardened, the plates were inverted and incubated at 37±1° C. for 48±2 hours. Plates were counted with the Sorcerer (v. 2.2)/Ames Study Manager (v. 1.2.4) system from Perceptive Instruments (Suffolk, UK). With this system, plate counts are automatically transferred from the plate imager (Sorcerer) to a Study Manager spreadsheet, and the data are stored in a secure manner on an Oracle database. Some plates were hand counted, e.g., if sample precipitate interferes with automatic counting or toxicity results in the formation of microcolonies, in which case, counts for these plates were entered into the spreadsheet manually. Plates were scored also with the extent of colonization by a post fix code.

[1] = test system: Methicillin Resistant Staphylococcus aureus (MRSA USA 300); assay: Colony forming assay, spread plate, MRSA USA 300; conditions: for Reduction of MRSA USA 300 counts: 24 h
Protocol: (§1) A fresh culture of pathogenic isolate was used in these examples. The bacterial strains used were Methicillin Resistant Staphylococcus aureus (MRSA USA 300), Pseudomonas aeruginosa ATCC 27312, and Candida albicans ATCC 64550.
(§2) FIG. 5 illustrates the spread plate method used in these examples. In sum, agar plates were made, bacteria were diluted to 10^6 or 10^8 CFU/mL, bacteria and drug were mixed together and then plated. Glass spreading beads were used because they give a better bacterial spread. Plates were incubated for 24 hrs then the colonies that formed were counted.
Proliferating cultures of Methicillin Resistant Staphylococcus aureus (MRSA, USA 300) were used in a colony forming assay. Freeze-dried bacteria culture of MRSA was recovered by swabbing a 3-cm diameter growth area and resuspending it to obtain a final inoculum suspension of approximately 10^8 CFU/mL. The concentration was confirmed using historical optical density measurements. The total compound BM3103 was suspended in a 70% v/v alcohol gel formulation (Formulation A) before the introduction of bacteria, with the vehicle consisting of solely the 70% v/v alcohol gel. MRSA at 10^8 CFU/mL was challenged with equal parts of a high, medium, and low dose of BM3103, vehicle formulation, positive control (Tobramycin, 600 μg/mL), or untreated control (phosphate buffered saline). The inoculum was plated on Tryptic Soy Broth plates at 37° C. for 24 h. Plates were photographed and counted. The treatment for each experiment was done in triplicate, and the experiment was repeated three times, for a total of 9 plates per group.
Colony counts for each treatment were tabulated and the Log of the colony forming units/mL (Log CFU/mL) was determined. The mean and standard deviation of the Log CFU/mL were calculated for each treatment. A one-way analysis of variance was performed at a 95% confidence interval.

[2] = test system: Pseudomonas aeruginosa ATCC 27312; assay: Colony forming assay, spread plate, Pseudomonas aeruginosa; conditions: for Reduction of PA counts: compared to vehicle, Tobramycin and untreated control
Protocol: as §1, §2
Proliferating cultures of Pseudomonas aeruginosa (PA, ATCC 27312) and Candida albicans (CA, ATCC 64550) were used in a colony forming assay. Freeze-dried bacteria cultures were recovered by swabbing a 3-cm diameter growth area and resuspending it to obtain a final inoculum suspension of approximately 10^6 CFU/mL. The concentration was confirmed using historical optical density measurements. Before bacteria challenge, the tolan compound BM3103 was suspended in 100% diethylene glycol monoethyl ether (Formulation C) with vehicle control consisting solely of the diethylene glycol monoethyl ether. Before plating, 100 μL of the final inoculum (10^6 CFU/mL) was mixed with 200 μL LB broth and 200 μL of BM3103 doses, vehicle, positive control (Tobramycin, 12 μg/mL for PA and 160 μg/mL for CA), or untreated control (phosphate buffered saline). The final plating concentration for the high, middle, and low BM3103 doses were 0.5%, 0.25%, and 0.1% w/v (22 mM, 11 mM, and 4 mM), respectively. The inoculum was plated on agar with centrimide and nalidixate (CN) supplement for PA (though sodium nalidixate or nalixic acid could also be used), and on Tryptic Soy Broth plates for CA experiments, at 37° C. for 24 h. Plates were photographed and counted. The experiment was done in triplicate.
Colony counts for each treatment were tabulated and the Log of the colony forming units/mL (Log CFU/mL) were determined. The mean and standard deviation of the Log CFU/mL were calculated for each treatment. […] The medium and low dose groups reduced PA counts when compared to the vehicle, Tobramycin, and untreated control groups by about 5-fold.

COc1ccc(C#Cc2ccc(O)cc2)cc1 [BM3103, 4-hydroxy-4′-methoxytolan]
Colony forming units/plate (E. coli WP2 uvrA pKM101; 20 μg/plate): 138.0 colony forming units/plate
Individual colony counts (E. coli WP2 uvrA pKM101; 20 μg/plate): 138
Colony forming units/plate (E. coli WP2 uvrA pKM101; 50 μg/plate): 14.0 colony forming units/plate
Individual colony counts (E. coli WP2 uvrA pKM101; 50 μg/plate): 14
Colony forming units/plate (E. coli WP2 uvrA pKM101; 125 μg/plate): 0.0 colony forming units/plate
Individual colony counts (E. coli WP2 uvrA pKM101; 125 μg/plate): 0
Colony forming units/plate (E. coli WP2 uvrA pKM101; 250 μg/plate): 0.0 colony forming units/plate
Individual colony counts (E. coli WP2 uvrA pKM101; 250 μg/plate): 0
Plate postfix code (individual colony counts) (E. coli WP2 uvrA pKM101; 250 μg/plate): A P
Colony forming units/plate (E. coli WP2 uvrA pKM101; 500 μg/plate): 0.0 colony forming units/plate
Individual colony counts (E. coli WP2 uvrA pKM101; 500 μg/plate): 0
Plate postfix code (individual colony counts) (E. coli WP2 uvrA pKM101; 500 μg/plate): A P
Colony forming units/plate (E. coli WP2 uvrA pKM101; 1250 μg/plate): 0.0 colony forming units/plate
Individual colony counts (E. coli WP2 uvrA pKM101; 1250 μg/plate): 0
Colony forming units/plate (E. coli WP2 uvrA pKM101; 2500 μg/plate): 0.0 colony forming units/plate
Individual colony counts (E. coli WP2 uvrA pKM101; 2500 μg/plate): 0
Plate postfix code (individual colony counts) (E. coli WP2 uvrA pKM101; 2500 μg/plate): A P
Colony forming units/plate (E. coli WP2 uvrA pKM101; 5000 μg/plate): 0.0 colony forming units/plate
Individual colony counts (E. coli WP2 uvrA pKM101; 5000 μg/plate): 0
Plate postfix code (individual colony counts) (E. coli WP2 uvrA pKM101; 5000 μg/plate): A P
Reduction in MRSA USA 300 counts compared to the positive control ([1]; all three doses (0.05, 0.25, 0.5% w/v) vs Tobramycin 600 μg/mL): significantly greater reduction
Reduction of MRSA USA 300 counts ([1]; high dose 0.5% w/v, 22 mM, alcohol gel): approximately 8 fold
Reduction of MRSA USA 300 counts ([1]; low dose 0.05% w/v, 2 mM, 70% v/v alcohol gel (Formulation A), compared to vehicle and untreated controls): over 6 fold
Reduction of MRSA USA 300 counts ([1]; medium dose 0.25% w/v, 11 mM, alcohol gel, compared to vehicle and untreated control): 7 fold
Dose dependence of effect on PA bacterial counts ([2]; 0.1-0.5% w/v, Formulation C): dose dependent inhibitory effect
PA bacterial counts ([2]; high dose 0.5% w/v, 22 mM, diethylene glycol monoethyl ether (Formulation C), 24 h, FIG. 7): no bacteria colonies
Reduction of PA counts ([2]; low dose 0.1% w/v, 4 mM, Formulation C, 24 h): about 5 fold
Reduction of PA counts ([2]; medium dose 0.25% w/v, 11 mM, Formulation C, 24 h): about 5 fold
